# Read-outs that look alike come from different tables or passages of the source.
# Legend:
# [1] = system: BID; conditions: Jurkat T cells, 50 μM
# Description: Human Jurkat T cells were cultured in RPMI 1640, supplemented with 10% fetal calf serum, 100 units/ml of penicillin and 100 μg/ml of streptomycin. Human breast cancer MCF-7 and MDA-MB-231 cells, human prostate cancer PC-3 cells, and human head-and-neck cancer PCI-13 cells were grown in Dulbecco's modified Eagle's medium containing 10% fetal calf serum, penicillin and streptomycin. All the cell lines were maintained in a 5% CO2 atmosphere at 37° C. A whole cell extract was prepared as described previously (An et al., 1998). Briefly, cells are harvested, washed with PBS and homogenized in a lysis buffer (50 mM Tris-HCl, pH 8.0, 5 mM EDTA, 150 mM NaCl, 0.5% NP-40, 0.5 mM PMSF, and 0.5 mM dithiothreitol) for 30 min at 4° C. After that, the lysates are centrifuged at 14,000×g for 30 min and the supernatants are collected as whole cell extracts. Equal amounts of protein extract (50 μg) are resolved by SDS-polyacrylamide gel electrophoresis and then transferred to a nitrocellulose membrane (Schleicher & Schuell, Keene, N H) using a Semi-Dry Transfer System (BIO-RAD; Hercules, Calif.). The enhanced chemiluminescence (ECL) Western Blot analysis is then performed using specific antibodies to the proteins of interest.
# [2] = system: p38 MAP kinase; experiment: p38 phosphorylation, Western blot, Jurkat T cells; type: cell-based, human
# Source text: It has been shown that multiple stimuli including DNA damaging agents induce apoptosis via activation of p38 MAP kinase (Kummer J L, et al., 1997, Apoptosis induced by withdrawal of trophic factors is mediated by p38 mitogen-activated protein kinase. J. Biol Chem 272:20490-4; Sanchez-Prieto R, et al., 2000, A role for the p38 mitogen-acitvated protein kinase pathway in the transcriptional activation of p53 on genotoxic stress by chemotherapeutic agents. Cancer Res 60:2464-72). […] The levels of Tyr-182 phosphorylated p38 protein were increased by 3-fold at 2 h and reached its maximum (˜9-fold) by 6 h (FIG. 8A). In has been shown that dual phosphorylation of p38 on Tyr-182 and Thr-180 activates this kinase (Raingeaud J, et al., 1995, Pro-inflammatory cytokines and environmental stress cause p38 mitogen-activated protein kinase activation by dual phosphorylation on tyrosine and threonine. J Biol Chem 270:7420-6). […] Therefore, lactam 1-induced DNA damage triggered activation of p38 before S population accumulation and apoptosis induction.
# [3] = system: caspase-3; conditions: LNCaP cells, 48 h, 50 μM
# Description: To measure cell-free caspase-3 activity, whole cell extracts (20-30 μg) from untreated or treated LNCaP cells were incubated with 20 μM of the fluorogenic substrate caspase-3/caspase-7 (Ac-DEVD-AMC) for 30 min at 37° C. in 100 μl of assay buffer (50 mM Tris, pH 8.0).
# [4] = system: MCF-7 cells; experiment: MTT assay, MCF-7; type: cell-based, human; conditions: MCF-7, 50 μM, 24 hours
# Description: MCF-7, MDA-MB-231, PC-3 and PCI-13 cells were grown to 50% confluency in a 24 well plate. […] A stock 5 mg/ml of MTT in serum-free media was then added to the cell cultures at a final concentration of 1 mg/ml, followed by a 3 hour incubation at 37° C. After cells crystallized, the media was removed and DMSO added to dissolve the metabolized MTT product. The absorbance was then measured on a Wallac Victor 1420 Multilabel counter at […].
# [5] = system: cytochrome C; conditions: Jurkat T cells, 50 μM, 2 to 4 hours
# Description: At each time point, cells were washed twice with PBS, resuspended in a hypotonic buffer containing 20 mM HEPES (pH 7.5), 1.5 mM MgCl2, 5 mM KCl and 1 mM DTT, and incubated on ice for 10 min. The cells are dounced 30 times, and the lysate is centrifuged at 2,000×g for 10 min. The supernatant is collected and centrifuged again at the same condition. The resulting supernatant is then centrifuged at 20,500×g for 30 min, followed by collection of both the supernatant (cytosol) and pellet fractions. The pellet is washed twice with a buffer containing 210 mM mannitol, 70 mM sucrose, 5 mM Tris-HCl (pH 7.5) and 1 mM EDTA, and resuspended in the lysis buffer as the mitochondria fraction.
# [6] = system: WI-38 cells; conditions: 50 μM
# Description: (§1) (FIG. 19A) MTT assay. (FIG. 19B) Cell-free caspase-9 activity assay. A protein extract (20 μg) is incubated with 20 μM Ac-LEHD-AFC (the specific caspase-9 substrate) in a 96-well plate at 37° C. for 2 h. After incubation, the liberated florescent AFC groups are measured by Wallac Victor 1420 Multilabel counter with 405/535 nm filters. […] Both intact and active forms of caspase-3 are indicated. […] Both detached and attached populations of Va-13 or WI-38 cells are collected, and used for nuclear staining assay with DNA staining dye Hoechst 33342.
# (§2) To assay nuclear morphology, both the detached or remaining attached solid tumor cells were washed with PBS, fixed with 70% ethanol for 1 hour, and stained with Hoechst 33342 (50 μM) for 30 minutes. The nuclear morphology of cells was visualized by a fluorescence microscope.
# [7] = system: VA-13 cells; conditions: detached VA-13 cells, 50 μM
# Description: as §1, §2
# [8] = system: Jurkat T cells; experiment: Flow cytometry cell cycle distribution and sub-G1 population, Jurkat T cells; type: cell-based, human; conditions: 50 μM
# Description: Cell Death Differ 5:1062-75. At each time point, cells are harvested, counted, and washed twice with PBS. Cells (5×10^6) are suspended in 0.5 ml PBS, fixed in 5 ml of 70% ethanol for at least 2 h at −20° C., centrifuged, resuspended again in 1 ml of propidium iodide staining solution (50 μg propidium iodide, 100 units RNase A and 1 mg glucose per ml PBS), and incubated at room temperature for 30 minutes. The cells are then analyzed with FACScan (Becton Dickinson Immunocytometry, CA), ModFit LT and WinMDI V.2.8 cell cycle analysis software (Verity Software; Topsham, Me.). The cell cycle distribution is shown as the percentage of cells containing G1, S, G2, and M DNA judged by propidium iodide staining. The apoptotic population is determined as the percentage of cells with sub-G1 (<G1) DNA content.
# [9] = system: caspase-3; conditions: 50 μM, up to 48 hours
# Description: as §1
# [10] = system: caspase-9; conditions: 50 μM, up to 48 hours
# Description: as §1
smiles,measurement,setting,value
COC1C(=O)N(SC)C1c1ccccc1Cl (racemic) [lactam 1],time at which 15-kDa fragment of Bid was first observed,[1],2 h
same,time of peak of 15-kDa fragment of Bid,[1],6 h
same,increase of Tyr-182 phosphorylated p38 protein,"[2]; 50 μM, 2 h",3 fold
same,increase of Tyr-182 phosphorylated p38 protein (maximum),"[2]; 50 μM, 6 h",~9 fold
same,levels of total p38 protein,"[2]; 50 μM, up to 12 hours",remained relatively unchanged
same,normalized increase in phosphorylation of p38 over control,[2]; FIG. 8D,5.9 fold
same,increase in caspase-3 activity over control,[3],2.5 fold
same,decrease of cellular viability (MTT),[4],80%
same,levels of cytosolic cytochrome C,[5],significantly increased
same,levels of mitochondrial cytochrome C,[5],decreased
same,nuclear morphology (Hoechst 33342),[6],remained attached with normal nuclei
same,nuclear morphology (Hoechst 33342),[7],apoptotic nuclear condensation and fragmentation
same,apoptotic sub-G1 cell population,[8]; 2 to 4 hours,2%
same,increase in S phase population,[8]; 2 to 4 hours,2-3%
same,increase in S phase population,[8]; 6 to 12 hours,up to 13%
same,sub-G1 population,[8]; 6 to 12 hours,5-16%
same,increase in S phase population,[8]; 5 hours,21%
same,sub-G1 apoptotic population,[8]; 5 hours,14%
same,sub-G1 population,[8]; 24 h,30%
same,increase in S population,[8]; 24 hour,20%
same,processing and activation of caspase-3,[9]; VA-13 cells,"detected only in the transformed, but not normal, human cells"
same,processing and activation of caspase-3,[9]; WI-38 cells,"detected only in the transformed, but not normal, human cells"
same,cell-free caspase-9 activity,[10]; VA-13 cells,activated cell-free caspase-9 activity
same,cell-free caspase-9 activity,[10]; WI-38 cells,no caspase-9 activation was detected

# Source: patent US7635693B2, “Methods for preventing and treating cancer using N-thiolated β-lactam compounds and analogs thereof” (University of South Florida, priority 2002, dated 2009)
